Columns and labels:
[1] = biological target: T1, human RORγt (Ligand Binding Domain) (Homo sapiens, UniProt P51449); experiment: Fluorescence Polarization (FP) Assay; settings: 100 nM human RORγt LBD, 25 nM TAMRA probe, values are activity range bounds
T1 construct: purchased Crelux (Planegg, Germany) batch no PC5032-1
T1 sequence (P51449 269-508 limits assumed): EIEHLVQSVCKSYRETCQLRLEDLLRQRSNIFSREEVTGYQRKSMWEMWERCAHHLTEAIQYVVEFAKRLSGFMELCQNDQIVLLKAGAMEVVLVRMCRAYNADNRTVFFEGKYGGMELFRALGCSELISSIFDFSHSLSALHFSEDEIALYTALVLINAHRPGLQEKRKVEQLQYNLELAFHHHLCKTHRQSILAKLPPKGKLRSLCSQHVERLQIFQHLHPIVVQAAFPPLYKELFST
Procedure, shortened: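 In vitro fluorescence polarization binding assay on the RORγt ligand-binding pocket. A TAMRA-labelled RORγt ligand probe (MW 910 g/mol) was used, with DMSO as negative control.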

[2] = biological target: T2, ligand binding domain of human RORγ (Homo sapiens, UniProt P51449); experiment: RORγ Reporter Assay (Gal4); type: cell-based; settings: for inhibition at 1 µM: HEK-293T, 1 μM test compound, HEK293t RORγ reporter cells, 24 hour, read-out: Gal4 activity range @ 1 μM (% inhibition); for Gal4 activity range @ 0.1 μM (% inhibition): RORγ Reporter Assay (Gal4), HEK293t reporter cells, compound at 0.1 μM, values are activity range bounds
T2 construct: host or cells: HEK293t
T2 sequence (P51449 269-508 limits assumed): T1 sequence (P51449 269-508 limits assumed)
Protocol: The activity of the compounds was evaluated using a Fluorescence Polarization (FP) Assay and, RORγ Reporter assay (also referred to as Gal4 assay). The FP assay is an in vitro assay monitoring binding within the ligand binding pocket. The RORγ and the Th17 assays (another suitable assay) are both cell-based assays monitoring functional activity of the compound assayed.
RORγ Reporter Assay (Gal4)
Cell-based RORγ functional assays were performed using a commercially available assay product (INDIGO Biosciences, State College, Pa., USA; product # IB04001). The RORγ reporter cells are HEK293t cells transfected with one vector that provides high level constitutive expression of a hybrid protein comprised of the yeast Gal4-DNA binding domain fused to the ligand binding domain of human RORγ, and a second vector comprising the firefly luciferase cDNA functionally linked to the upstream activation sequence (UAS) of yeast Gal4. A suspension of RORγ Reporter Cells was prepared using the protocol and culture medium provided in the kit product, and 100 μl of the Reporter Cell suspension was then dispensed into wells of a white, collagen-treated, 96-well assay plate. Concentrated stocks of test compounds were prepared in DMSO, then further diluted using media provided in the kit to generate ‘2×-concentration’ treatment media. 100 μl of medium for each respective treatment concentration dispensed into triplicate assay wells, thereby combining with the reporter cells. All media formulations contained 10% charcoal stripped Fetal Bovine Serum, but are otherwise proprietary to INDIGO Biosciences. Final treatment concentrations for each test compound were 1,000 nM and 100 nM, each with 0.1% residual DMSO. Separate control treatments were media supplemented with vehicle only (0.1% DMSO) to determine the constitutive level of RORγ activity in the reporter cells, and the reference inverse-agonist ursolic acid (f.c. 6,000 nM to 8.2 nM in 3-fold decrements) to establish a positive control inverse-agonist dose response. Assay plates were placed in a 37° C., 5% CO2, 85% humidity incubator for 24 hour. Treatment media were then discarded, 100 μl of luciferase detection reagent was added to each well, and relative light units (RLUs) were quantified from each assay well using a plate reading luminometer. Values of average RLU+/−standard deviation were computed for all treatment sets, followed by the calculations of fold-reduction: [Average RLUVehicle/Average RLUTest Cmpd]. Percent-reduction of RORγ activity in response to respective test compound treatments was calculated: [100*(1−[Ave RLUTest Cmpd/Ave RLUVehicle)] where the theoretical minimum reduction (0% reduction) derives from Vehicle treatment only, no treatment compound. In some aspects it may be of interest to provide compounds with selective modulation of RORγ for example compounds that are selective to RORγ over RORα, compounds that are selective for RORγ versus RORPβ, and compounds that are selective for RORγ versus BOTH RORα and RORPβ. It may also be of interest to provide compounds that are selective for RORγ versus further nuclear hormone receptors such as CAR1, FXR, GR, LXRα, LXRβ, PPARα, PXR, RARα, RXRα, TRα, VDR. It is apparent to those skilled in the art that these nuclear hormone receptors are merely examples, and that selectivity against other nuclear receptors may also be of interest. It may for example be of interest to provide compounds that modulate RORγ and one or more further nuclear hormone receptors, as well as compounds that modulate both RORγ and RORα, or RORγ and RORβ. It may also be of interest to provide compounds that modulate RORγ and BOTH RORα and RORP, as well as compounds that modulate both RORγ and one or more further nuclear hormone receptors such as CAR1, FXR, GR, LXRα, LXRβ, PPARα, PXR, RARα, RXRα, TRα, VDR. It is apparent to those skilled in the art that these nuclear hormone receptors are merely examples, and that modulation of even other nuclear receptors may also be of interest. […]

Structure (SMILES)	IC50 [1] [µM]	inhibition at 1 µM [2] [%]	Gal4 activity range @ 0.1 μM (% inhibition) [2] [% inhibition]
NC(=O)Cc1ccc(CNc2ncnc(N(C3CC3)C(c3ccc(C(F)(F)F)cc3)C3CCC3)c2F)cc1 (centres unmarked) [Example A17, 2-[4-[[[6-[[cyclobutyl-[4-(trifluoromethyl)phenyl]methyl]-cyclopropyl-amino]-5-fluoro-pyrimidin-4-yl]amino]methyl]phenyl]acetamide]	< 2	> 50	>20
NC(=O)Cc1ccc(CNc2ncnc(N(Cc3ccc(C(F)(F)F)cc3)CC3CC3)c2F)cc1 [Example A18, 2-[4-[[[6-[cyclopropylmethyl-[[4-(trifluoromethyl)phenyl]methyl]amino]-5-fluoro-pyrimidin-4-yl]amino]methyl]phenyl]acetamide]	< 0.5	> 80	>50
CN(Cc1ccc(C(F)(F)F)cc1)c1ncnc(NCc2ccc(CC(N)=O)cc2)c1F [Example A19, 2-[4-[[[5-fluoro-6-[methyl-[[4-(trifluoromethyl)phenyl]methyl]amino]pyrimidin-4-yl]amino]methyl]phenyl]acetamide]	< 0.5	> 80	>20
CN(Cc1ccc(OC(F)(F)F)cc1)c1ncnc(NCc2ccc(CC(N)=O)cc2)c1F [Example A20, 2-[4-[[[5-fluoro-6-[methyl-[[4-(trifluoromethoxy)phenyl]methyl]amino]pyrimidin-4-yl]amino]methyl]phenyl]acetamide]	< 2	> 50	>20
NC(=O)Cc1ccc(CNc2ncnc(N(Cc3ccccc3)C3CC3)c2F)cc1 [Example A42, 2-[4-[[[6-[benzyl(cyclopropyl)amino]-5-fluoro-pyrimidin-4-yl]amino]methyl]phenyl]acetamide]	< 0.5	> 50	>20
CN(Cc1ccc(-n2cccn2)cc1)c1ncnc(NCc2ccc(CC(N)=O)cc2)c1F [Example A52, 2-[4-[[[5-fluoro-6-[methyl-[(4-pyrazol-1-ylphenyl)methyl]amino]pyrimidin-4-yl]amino]methyl]phenyl]acetamide]	< 0.5	> 50	>0
CC(C)c1ccc(CN(c2ncnc(NCc3ccc(CC(N)=O)cc3)c2F)C2CC2)cc1 [Example A53, 2-[4-[[[6-[cyclopropyl-[(4-isopropylphenyl)methyl]amino]-5-fluoro-pyrimidin-4-yl]amino]methyl]phenyl]acetamide]	< 0.5	> 80	>80
CCOc1ccc(CN(c2ncnc(NCc3ccc(CC(N)=O)cc3)c2F)C2CC2)cc1 [Example A54, 2-[4-[[[6-[cyclopropyl-[(4-ethoxyphenyl)methyl]amino]-5-fluoro-pyrimidin-4-yl]amino]methyl]phenyl]acetamide]	< 0.5	> 80	>50
COc1cccc(CN(c2ncnc(NCc3ccc(CC(N)=O)cc3)c2F)C2CC2)c1 [Example A55, 2-[4-[[[6-[cyclopropyl-[(3-methoxyphenyl)methyl]amino]-5-fluoro-pyrimidin-4-yl]amino]methyl]phenyl]acetamide]	< 0.5	> 0	–
OCC1(Cn2ccc3c(N(Cc4ccc(C(F)(F)F)cc4)C4CC4)ncnc32)COC1 [Example A56, [3-[[4-[cyclopropyl-[[4-(trifluoromethyl)phenyl]methyl]amino]pyrrolo[2,3-d]pyrimidin-7-yl]methyl]oxetan-3-yl]methanol]	< 0.5	> 80	>80

Results, then the compound that gave them:

IC50 [1] [µM]	inhibition at 1 µM [2] [%]	Gal4 activity range @ 0.1 μM (% inhibition) [2] [% inhibition]	Structure (SMILES)
< 0.5	> 80	>50	O=S(=O)(N[C@H]1CC[C@H](CNc2ncnc(N(Cc3ccc(C(F)(F)F)cc3)C3CC3)c2F)CC1)C(F)(F)F [Example A57, N-[4-[[[6-[cyclopropyl-[[4-(trifluoromethyl)phenyl]methyl]amino]-5-fluoro-pyrimidin-4-yl]amino]methyl]cyclohexyl]-1,1,1-trifluoro-methanesulfonamide]
< 0.5	> 80	>20	CN(Cc1cccc(-n2cccn2)c1)c1ncnc(NCc2ccc(CC(N)=O)cc2)c1F [Example A58, 2-[4-[[[5-fluoro-6-[methyl-[(3-pyrazol-1-ylphenyl)methyl]amino]pyrimidin-4-yl]amino]methyl]phenyl]acetamide]
< 0.5	> 80	>80	CS(=O)(=O)Nc1ccc(CNc2ncnc(N(Cc3ccc(C(F)(F)F)cc3)C3CC3)c2F)cc1 [Example A59, N-[4-[[[6-[cyclopropyl-[[4-(trifluoromethyl)phenyl]methyl]amino]-5-fluoro-pyrimidin-4-yl]amino]methyl]phenyl]methane-sulfonamide]
< 0.5	> 80	>0	O=S(=O)(Nc1ccc(CNc2ncnc(N(Cc3ccc(C(F)(F)F)cc3)C3CC3)c2F)cc1)C(F)(F)F [Example A60, N-[4-[[[6-[cyclopropyl-[[4-(trifluoromethyl)phenyl]methyl]amino]-5-fluoro-pyrimidin-4-yl]amino]methyl]phenyl]-1,1,1-trifluoro-methanesulfonamide]
< 0.5	> 80	>20	Fc1c(NC[C@H]2CC[C@H](Cc3nnn[nH]3)CC2)ncnc1N(Cc1ccc(C(F)(F)F)cc1)C1CC1 [Example A61, N4-cyclopropyl-5-fluoro-N6-[[4-(1H-tetrazol-5-ylmethyl)cyclohexyl]methyl]-N4-[[4-(trifluoromethyl)phenyl]methyl] pyrimidine-4,6-diamine]
< 0.5	> 80	>80	N#CC[C@H]1CC[C@H](CNc2ncnc(N(Cc3ccc(C(F)(F)F)cc3)C3CC3)c2F)CC1 [Example A62, 2-[4-[[[6-[cyclopropyl-[[4-(trifluoromethyl)phenyl]methyl]amino]-5-fluoro-pyrimidin-4-yl]amino]methyl]cyclohexyl] acetonitrile]
< 0.5	> 80	>80	CS(=O)(=O)NCC1(CNc2ncnc(N(Cc3ccc(C(F)(F)F)cc3)C3CC3)c2F)CCOCC1 [Example A63, N-[[4-[[[6-[cyclopropyl-[[4-(trifluoromethyl)phenyl]methyl]amino]-5-fluoro-pyrimidin-4-yl]amino]methyl]tetrahydropyran-4-yl]methyl]methanesulfonamide]

From patent publication US10683293B2, “Optionally fused heterocyclyl-substituted derivatives of pyrimidine useful for the treatment of inflammatory, metabolic, oncologic and autoimmune diseases” (NUEVOLUTION A/S, priority 2014, dated 2020)
